In the Deep4Chem optical property database:
Values belong to the molecule of their own block, whether it stands above or below them.

Test: solvent given as SMILES

fluorescence lifetime (in ClC(Cl)Cl): 0.86 ns
SMILES: CCCCCCN1C(=O)c2cccc3c(-c4cc5ccccc5s4)ccc(c23)C1=O

fluorescence lifetime (in C1CCOC1): 0.25 ns
fluorescence lifetime (in ClC(Cl)Cl): 0.9 ns
fluorescence lifetime (in ClCCl): 0.38 ns
SMILES: COc1cc2cc(OC)c(C#Cc3ccc([N+](=O)[O-])cc3)cc2cc1C#Cc1ccc([N+](=O)[O-])cc1

fluorescence lifetime (in ClCCl): 4.56 ns
SMILES: CCOC(=O)c1ccc(C2CC(c3cccc4ccccc34)=NN2c2ccc(C)cc2)cc1 (configuration not stated)

fluorescence lifetime (in CC1CCCCC1): 0.22 ns
fluorescence lifetime (in CC#N): 0.67 ns
fluorescence lifetime (in CO): 0.25 ns
SMILES: CCN(CC)c1ccc(-c2nc3cc(C(NC(=O)OC(C)(C)C)C(=O)OC)ccc3o2)c(O)c1 (configuration not stated)

fluorescence lifetime (in O): 13 ns
SMILES: O=C(O)CCCCCn1c2ccccc2c(=O)c2cc(S(=O)(=O)O)ccc21

fluorescence lifetime (in C1CCCCC1): 2.04 ns
fluorescence lifetime (in CC#N): 3.27 ns
SMILES: CC(C)c1ccc(/C=C/c2nc3ccc(N(C)C)cc3s2)cc1

fluorescence lifetime (in ClC(Cl)Cl): 7.63 ns
SMILES: CC[Si](CC)(CC)c1cc2ccc3cccc4ccc(c1C(=O)NC(C)(C)C)c2c34

fluorescence lifetime (in CCO): 2.01 ns
SMILES: c1ccc(-c2nnc(-c3ccc(-n4c5ccccc5c5ccccc54)cc3)o2)cc1

fluorescence lifetime (in C1CCOC1): 4.26 ns
SMILES: CCn1c2ccccc2c2cc(C#Cc3cc(C#Cc4ccc5c(c4)c4ccccc4n5CC)nc(C#N)n3)ccc21

More lines, now with the values behind:

SMILES: CCCCC(CC)CN1C(=O)c2cc(Oc3ccc(C(C)(C)C)cc3)c3c4c(Cl)cc5c6c(cc(Cl)c(c7c(Oc8ccc(C(C)(C)C)cc8)cc(c2c37)C1=O)c64)C(=O)N(c1c(C(C)C)cccc1C(C)C)C5=O (configuration not stated)
fluorescence lifetime (in Cc1ccccc1): 6.73 ns

SMILES: CCCC1(CCC)c2cc(C=C(C#Cc3ccccc3)C#Cc3ccccc3)ccc2-c2ccc(C=C(C#Cc3ccccc3)C#Cc3ccccc3)cc21
fluorescence lifetime (in ClC(Cl)Cl): 0.6 ns

SMILES: Cc1cc(N(C)C)cc(C)c1/C=C/C=C/c1ccc(C#N)cc1
fluorescence lifetime (in C1CCOC1): 0.51 ns
fluorescence lifetime (in CC#N): 0.61 ns
fluorescence lifetime (in CCCCCC): 0.29 ns
fluorescence lifetime (in CCCCOCCCC): 0.38 ns
fluorescence lifetime (in CCO): 0.58 ns
fluorescence lifetime (in CCOCC): 0.49 ns

SMILES: COc1ccc(C#Cc2ccc(C#Cc3ccc(C#Cc4ccccc4C#N)cc3C#N)cc2C#N)cc1
fluorescence lifetime (in C1CCOC1): 1.29 ns
fluorescence lifetime (in CC#N): 1.29 ns
fluorescence lifetime (in CN(C)C=O): 1.38 ns
fluorescence lifetime (in ClC(Cl)Cl): 1.36 ns
fluorescence lifetime (in c1ccccc1): 1.45 ns

SMILES: O=C(c1ccc(N2c3ccccc3[Si](c3ccccc3)(c3ccccc3)c3ccccc32)cc1)c1ccc(N2c3ccccc3[Si](c3ccccc3)(c3ccccc3)c3ccccc32)cc1
fluorescence lifetime (in c1cc(-n2c3ccccc3c3ccccc32)cc(-n2c3ccccc3c3ccccc32)c1): 134 ns

SMILES: CSc1sc(C(C)=O)c2nn[nH]c(=O)c12
fluorescence lifetime (in C1CCOC1): 0.42 ns
fluorescence lifetime (in CC#N): 0.75 ns
fluorescence lifetime (in CCO): 0.41 ns
fluorescence lifetime (in CN(C)C=O): 0.25 ns
fluorescence lifetime (in CO): 0.33 ns
fluorescence lifetime (in CS(C)=O): 0.15 ns

SMILES: CC1=[N+]2C(=C(c3ccc(C(=C(c4ccccc4)c4ccccc4)c4ccccc4)cc3)c3ccc(/C=C/c4ccc(C(=C(c5ccccc5)c5ccccc5)c5ccccc5)cc4)n3[B-]2(F)F)C=C1
fluorescence lifetime (in C1CCOC1): 3.5 ns

SMILES: COc1ccc(C2=c3sc(-c4ccc(OC)cc4)c(-c4ccc(OC)cc4)c3=[N+]3C2=Nc2c(-c4ccc(OC)cc4)c4sc(-c5ccc(OC)cc5)c(-c5ccc(OC)cc5)c4n2[B-]3(F)F)cc1
fluorescence lifetime (in ClC(Cl)Cl): 1.53 ns

SMILES: COc1cc2c(cc1-c1ccc(C#N)cc1)Cc1c3c(c4c(c1-2)-c1cc(OC)c(-c2ccc(C#N)cc2)cc1C4)C(=O)N(CCC(C)C)C3=O
fluorescence lifetime (in C1CCOC1): 2.1 ns
